Test results from patent US10329291B2, “C5-C6-carbocyclic fused iminothiadiazine dioxides as BACE inhibitors, compositions, and their use” (Merck Sharp & Dohme Corp., priority 2015, dated 2019).
pKi: −log10 of the molar value.

Each compound was assayed against soluble human BACE-1 catalytic domain (Homo sapiens (Human), UniProt P56817) (assay: BACE-1 Ki Assay (BACE-1 HTRF FRET Assay)). Conditions: Ki calculated from IC50 using the Cheng-Prusoff equation; QSY7-APPswe-Eu substrate, pH 5.0; read-out: BACE1 Ki.
soluble human BACE-1 catalytic domain, sequence (P56817 75-416): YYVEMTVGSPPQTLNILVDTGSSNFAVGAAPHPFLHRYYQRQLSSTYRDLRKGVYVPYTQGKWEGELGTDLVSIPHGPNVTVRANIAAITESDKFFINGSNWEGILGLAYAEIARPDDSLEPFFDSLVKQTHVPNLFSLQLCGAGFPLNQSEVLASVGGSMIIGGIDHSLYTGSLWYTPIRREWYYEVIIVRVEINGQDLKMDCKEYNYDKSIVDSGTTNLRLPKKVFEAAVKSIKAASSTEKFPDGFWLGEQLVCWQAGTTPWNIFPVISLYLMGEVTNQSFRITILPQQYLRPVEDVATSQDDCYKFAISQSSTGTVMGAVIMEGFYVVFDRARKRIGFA
Type: biochemical
Excerpt: The following reagents were used in this assay. Na^+-Acetate pH 5.0; 1% Brij-35; Glycerol; Dimethyl Sulfoxide (DMSO); Recombinant human soluble BACE-1 catalytic domain (>95% pure); APP Swedish mutant peptide substrate (QSY7-APP^swe-Eu): QSY7-[…]-Europium-amide.
A homogeneous time-resolved FRET assay can be used to determine IC50 values for inhibitors of the soluble human BACE-1 catalytic domain. This assay monitors the increase of 620 nm fluorescence that resulted from BACE-1 cleavage of an APPswedish APP^swe mutant peptide FRET substrate (QSY7-[…]-Europium-amide). This substrate contains an N-terminal QSY7 moiety that serves as a quencher of the C-terminal Europium fluorophore (620 nm Em). In the absence of enzyme activity, 620 nm fluorescence is low in the assay and increased linearly over 3 hours in the presence of uninhibited BACE-1 enzyme. Inhibition of BACE-1 cleavage of the QSY7-APP^swe-Eu substrate by inhibitors is manifested as a suppression of 620 nm fluorescence.
Reactions are initiated by addition of 10 μl of 600 nM QSY7-APP^swe-Eu substrate (200 nM final) to give a final reaction volume of 30 μl in a 384 well Nunc HTRF plate. The reactions are incubated at 30° C. for 1.5 hours. […] Inhibitor IC50 values are derived from non-linear regression analysis of concentration response curves. Ki values are then calculated from IC50 values using the Cheng-Prusoff equation using a previously determined […] of 8 μM for the QSY7-APP^swe-Eu substrate at BACE-1. The example compounds of the invention were measured in this assay.
Work on `COc1cnc(C(=O)Nc2ccc(F)c([C@]34CCC[C@H]3S(=O)(=O)N(C)C(=N)N4)c2)c(C)n1` [Example 12, N-(4-fluoro-3-((4aR,7aR)-3-imino-2-methyl-1,1-dioxidohexahydrocyclopenta[e][1,2,4]thiadiazin-4a(2H)-yl)phenyl)-5-methoxy-3-methylpyrazine-2-carboxamide] yielded a pKi of 7.64. `Cc1ccc(C(=O)Nc2ccc(F)c([C@]34CCC[C@H]3S(=O)(=O)N(C)C(=N)N4)c2)nc1` [Example 7, N-(4-fluoro-3-((4aR,7aR)-3-imino-2-methyl-1,1-dioxidohexahydrocyclopenta[e][1,2,4]thiadiazin-4a(2H)-yl)phenyl)-5-methylpicolinamide] gave a pKi of 7.38. `COc1cnc2c(Nc3ccc(F)c([C@]45CCC[C@H]4S(=O)(=O)N(C)C(=N)N5)c3)nccc2n1` [Example 20, (4aR,7aR)-4a-(2-fluoro-5-(2-methoxypyrido[3,4-b]pyrazin-5-ylamino)phenyl)-3-imino-2-methyloctahydrocyclopenta[e][1,2,4]thiadiazine 1,1-dioxide] showed a pKi of 7.44. Compound `COCC(=O)Nc1ccc(F)c(C23CCCC2S(=O)(=O)N(C)C(=N)N3)c1` (stereo not shown) [Example 35, N-(4-fluoro-3-(3-imino-2-methyl-1,1-dioxidohexahydrocyclopenta[e][1,2,4]thiadiazin-4a(2H)-yl)phenyl)-2-methoxy acetamide] has a pKi of 6.43. With `COc1ccc(C(=O)Nc2ccc(F)c([C@]34CCC[C@H]3S(=O)(=O)N(C)C(=N)N4)c2)nc1` [Example 15, N-(4-fluoro-3-((4aR,7aR)-3-imino-2-methyl-1,1-dioxidohexahydrocyclopenta[e][1,2,4]thiadiazin-4a(2H)-yl)phenyl)-5-methoxypicolinamide] the pKi was 7.80. `CN1C(=N)N[C@@]2(c3cc(NC(=O)c4ccc(Cl)cn4)ccc3F)CCC[C@H]2S1(=O)=O` [Example 4, 5-chloro-N-(4-fluoro-3-((4aR,7aR)-3-imino-2-methyl-1,1-dioxidohexahydrocyclopenta[e][1,2,4]thiadiazin-4a(2H)-yl)phenyl)picolinamide] was tested, and the pKi was 8.52. With `Cc1cc(F)cnc1C(=O)Nc1ccc(F)c([C@]23CCC[C@H]2S(=O)(=O)N(C)C(=N)N3)c1` [Example 10, 5-fluoro-N-(4-fluoro-3-((4aR,7aR)-3-imino-2-methyl-1,1-dioxidohexahydrocyclopenta[e][1,2,4]thiadiazin-4a(2H)-yl)phenyl)-3-methylpicolinamide] the pKi was 8.00. Work on `CN1C(=N)N[C@@]2(c3cc(NC(=O)c4ccc(C#N)cn4)ccc3F)CCC[C@H]2S1(=O)=O` [Example 5, 5-cyano-N-(4-fluoro-3-((4aR,7aR)-3-imino-2-methyl-1,1-dioxidohexahydrocyclopenta[e][1,2,4]thiadiazin-4a(2H)-yl)phenyl)picolinamide] yielded a pKi of 8.40. `COc1cnc(C(=O)Nc2ccc(F)c([C@]34CCC[C@H]3S(=O)(=O)N(C)C(=N)N4)c2)cn1` [Example 17, N-(4-fluoro-3-((4aR,7aR)-3-imino-2-methyl-1,1-dioxidohexahydrocyclopenta[e][1,2,4]thiadiazin-4a(2H)-yl)phenyl)-5-methoxypyrazine-2-carboxamide] showed a pKi of 7.96. `CN1C(=N)N[C@@]2(c3cc(NC(=O)c4ccc(F)cn4)ccc3F)CCC[C@H]2S1(=O)=O` [Example 1] showed a pKi of 8.00. In the case of `Cc1cnc(C(=O)Nc2ccc(F)c([C@]34CCC[C@H]3S(=O)(=O)N(C)C(=N)N4)c2)cn1` [Example 6, N-(4-fluoro-3-((4aR,7aR)-3-imino-2-methyl-1,1-dioxidohexahydrocyclopenta[e][1,2,4]thiadiazin-4a(2H)-yl)phenyl)-5-methylpyrazine-2-carboxamide], the pKi was 6.90. `CN1C(=N)NC2(c3cc(NC(=O)c4ccc(Cl)cn4)ccc3F)CC2S1(=O)=O` (stereo not shown) [Example 32, 5-chloro-N-(4-fluoro-3-(4-imino-3-methyl-2,2-dioxido-2-thia-3,5-diazabicyclo[4.1.0]heptan-6-yl)phenyl)picolinamide] was tested, and the pKi was 5.60. `CN1C(=N)N[C@@]2(c3cc(NC(=O)c4ncc(F)cc4F)ccc3F)CCC[C@H]2S1(=O)=O` [Example 9, 3,5-difluoro-N-(4-fluoro-3-((4aR,7aR)-3-imino-2-methyl-1,1-dioxidohexahydrocyclopenta[e][1,2,4]thiadiazin-4a(2H)-yl)phenyl)picolinamide] was tested, and the pKi was 7.66. For `CN1C(=N)N[C@@]2(c3cc(NC(=O)c4ncc(Cl)cc4F)ccc3F)CCC[C@H]2S1(=O)=O` [Example 8, 5-chloro-3-fluoro-N-(4-fluoro-3-((4aR,7aR)-3-imino-2-methyl-1,1-dioxidohexahydrocyclopenta[e][1,2,4]thiadiazin-4a(2H)-yl)phenyl)picolinamide], the pKi was 8.40. In the case of `CN1C(=N)N[C@@]2(c3cc(NC(=O)c4cnc(OCC(F)(F)F)cn4)ccc3F)CCC[C@H]2S1(=O)=O` [Example 16, N-(4-fluoro-3-((4aR,7aR)-3-imino-2-methyl-1,1-dioxidohexahydrocyclopenta[e][1,2,4]thiadiazin-4a(2H)-yl)phenyl)-5-(2,2,2-trifluoroethoxy)pyrazine-2-carboxamide], the pKi was 8.15. `COc1cnc(C(=O)Nc2ccc(F)c([C@]34CCC[C@H]3S(=O)(=O)N(C)C(=N)N4)c2)c(C)c1` [Example 11, N-(4-fluoro-3-((4aR,7aR)-3-imino-2-methyl-1,1-dioxidohexahydrocyclopenta[e][1,2,4]thiadiazin-4a(2H)-yl)phenyl)-5-methoxy-3-methylpicolinamide] showed a pKi of 7.80. `CN1C(=N)NC2(c3cc(NC(=O)C(F)F)ccc3F)CCCC2S1(=O)=O` (stereo not shown) [Example 36] was tested, and the pKi was 5.96. For `COc1cnc2c(Nc3ccc(F)c([C@]45CCC[C@H]4S(=O)(=O)N(C)C(=N)N5)c3)nccc2c1` [Example 19], the pKi was 7.51. `COc1cnc2c(Nc3ccc(F)c([C@]45CCC[C@H]4S(=O)(=O)N(C)C(=N)N5)c3)ccnc2c1` [Example 21] gave a pKi of 6.69. In the case of `C#CCOc1ccc(C(=O)Nc2ccc(F)c([C@]34CCC[C@H]3S(=O)(=O)N(C)C(=N)N4)c2)nc1` [Example 18, N-(4-fluoro-3-((4aR,7aR)-3-imino-2-methyl-1,1-dioxidohexahydrocyclopenta[e][1,2,4]thiadiazin-4a(2H)-yl)phenyl)-5-(prop-2-yn-1-yloxy)picolinamide], the pKi was 8.52. Work on `CN1C(=N)N[C@@]2(c3cc(Oc4ncccc4F)ccc3F)CCC[C@H]2S1(=O)=O` [Example 34, (4aR,7aR)-4a-(2-fluoro-5-((3-fluoropyridin-2-yl)oxy)phenyl)-3-imino-2-methyloctahydrocyclopenta[e][1,2,4]thiadiazine 1,1-dioxide] yielded a pKi of 7.05. With `CN1C(=N)N[C@@]2(c3cc(NC(=O)c4cnc(OCCF)cn4)ccc3F)CCC[C@H]2S1(=O)=O` [Example 2, N-(4-fluoro-3-((4aR,7aR)-3-imino-2-methyl-1,1-dioxidohexahydrocyclopenta[e][1,2,4]thiadiazin-4a(2H)-yl)phenyl)-5-(2-fluoroethoxy)pyrazine-2-carboxamide] the pKi was 7.74. `CN1C(=N)N[C@@]2(c3cc(NC(=O)c4cnc(C(F)(F)F)cn4)ccc3F)CCC[C@H]2S1(=O)=O` [Example 14, N-(4-fluoro-3-((4aR,7aR)-3-imino-2-methyl-1,1-dioxidohexahydrocyclopenta[e][1,2,4]thiadiazin-4a(2H)-yl)phenyl)-5-(trifluoromethyl)pyrazine-2-carboxamide] showed a pKi of 7.60. With `CN1C(=N)N[C@@]2(c3cc(NC(=O)c4ccc(OC(F)F)cn4)ccc3F)CCC[C@H]2S1(=O)=O` [Example 3, 5-(difluoromethoxy)-N-(4-fluoro-3-((4aR,7aR)-3-imino-2-methyl-1,1-dioxidohexahydrocyclopenta[e][1,2,4]thiadiazin-4a(2H)-yl)phenyl)picolinamide] the pKi was 8.40.

Same assay, conditions: read-out: BACE-1 Inh. @ 10 μM
With `CN1C(=N)N[C@@]2(c3cc(Br)ccc3F)CCC[C@H]2S1(=O)=O` [Example 33, (4aR,7aR)-4a-(5-bromo-2-fluorophenyl)-3-imino-2-methyloctahydrocyclopenta[e][1,2,4]thiadiazine 1,1-dioxide] the inhibition at 10 µM was 18%. `CN1C(=N)NC2(c3ccccc3F)CCCC2S1(=O)=O` (stereo not shown) [Example 37, 4a-(2-fluorophenyl)-3-imino-2-methyloctahydrocyclopenta[e][1,2,4]thiadiazine 1,1-dioxide] gave an inhibition at 10 µM of 43%.

Each compound was assayed against purified human autoBACE-2 (Homo sapiens (Human), UniProt Q9Y5Z0) (assay: BACE-2 Assay (BACE-HTRF assay)). Conditions: not given.
purified human autoBACE-2, sequence (Q9Y5Z0 63-473 limits assumed): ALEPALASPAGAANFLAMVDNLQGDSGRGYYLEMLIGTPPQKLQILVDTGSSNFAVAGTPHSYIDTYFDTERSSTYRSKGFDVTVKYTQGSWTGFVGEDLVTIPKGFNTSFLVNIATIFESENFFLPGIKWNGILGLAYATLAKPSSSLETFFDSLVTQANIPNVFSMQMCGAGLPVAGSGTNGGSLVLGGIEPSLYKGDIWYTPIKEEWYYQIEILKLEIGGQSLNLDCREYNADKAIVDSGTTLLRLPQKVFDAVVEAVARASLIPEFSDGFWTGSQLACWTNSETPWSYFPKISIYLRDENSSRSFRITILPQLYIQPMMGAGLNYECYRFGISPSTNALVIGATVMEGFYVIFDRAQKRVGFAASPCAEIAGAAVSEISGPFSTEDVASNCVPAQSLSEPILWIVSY
Compound `CN1C(=N)N[C@@]2(c3cc(Oc4ncccc4F)ccc3F)CCC[C@H]2S1(=O)=O` [Example 34, (4aR,7aR)-4a-(2-fluoro-5-((3-fluoropyridin-2-yl)oxy)phenyl)-3-imino-2-methyloctahydrocyclopenta[e][1,2,4]thiadiazine 1,1-dioxide] has a pKi of 7.12.

Same assay, conditions: read-out: BACE-2 Inh. @ 10 μM
With `CN1C(=N)N[C@@]2(c3cc(Br)ccc3F)CCC[C@H]2S1(=O)=O` [Example 33, (4aR,7aR)-4a-(5-bromo-2-fluorophenyl)-3-imino-2-methyloctahydrocyclopenta[e][1,2,4]thiadiazine 1,1-dioxide] the inhibition at 10 µM was 18%.
